Literature values as cited in US6469022B1, “Method, compositions and kits for increasing the oral bioavailability of pharmaceutical agents” (Smith Kline Beecham, Corporation, priority 1997, dated 2002).
Entries after “also recorded” stand apart in the source; their conditions may differ. Each block holds one molecule with its values, some of them ahead of it.

Experiments:
P-glycoprotein = P-glycoprotein (Homo sapiens, UniProt P08183)
[1] = in vivo
[2] = WO97/15269, Broder et al
[3] = oral administration
tumour = settings: up to 160 mg/kg/day, Stuffness et al.
metastatic breast cancer = settings: taxane-failure patients with metastatic breast cancer; continuous 96-hour infusion every three weeks

Sequence of P-glycoprotein (P08183 whole entry): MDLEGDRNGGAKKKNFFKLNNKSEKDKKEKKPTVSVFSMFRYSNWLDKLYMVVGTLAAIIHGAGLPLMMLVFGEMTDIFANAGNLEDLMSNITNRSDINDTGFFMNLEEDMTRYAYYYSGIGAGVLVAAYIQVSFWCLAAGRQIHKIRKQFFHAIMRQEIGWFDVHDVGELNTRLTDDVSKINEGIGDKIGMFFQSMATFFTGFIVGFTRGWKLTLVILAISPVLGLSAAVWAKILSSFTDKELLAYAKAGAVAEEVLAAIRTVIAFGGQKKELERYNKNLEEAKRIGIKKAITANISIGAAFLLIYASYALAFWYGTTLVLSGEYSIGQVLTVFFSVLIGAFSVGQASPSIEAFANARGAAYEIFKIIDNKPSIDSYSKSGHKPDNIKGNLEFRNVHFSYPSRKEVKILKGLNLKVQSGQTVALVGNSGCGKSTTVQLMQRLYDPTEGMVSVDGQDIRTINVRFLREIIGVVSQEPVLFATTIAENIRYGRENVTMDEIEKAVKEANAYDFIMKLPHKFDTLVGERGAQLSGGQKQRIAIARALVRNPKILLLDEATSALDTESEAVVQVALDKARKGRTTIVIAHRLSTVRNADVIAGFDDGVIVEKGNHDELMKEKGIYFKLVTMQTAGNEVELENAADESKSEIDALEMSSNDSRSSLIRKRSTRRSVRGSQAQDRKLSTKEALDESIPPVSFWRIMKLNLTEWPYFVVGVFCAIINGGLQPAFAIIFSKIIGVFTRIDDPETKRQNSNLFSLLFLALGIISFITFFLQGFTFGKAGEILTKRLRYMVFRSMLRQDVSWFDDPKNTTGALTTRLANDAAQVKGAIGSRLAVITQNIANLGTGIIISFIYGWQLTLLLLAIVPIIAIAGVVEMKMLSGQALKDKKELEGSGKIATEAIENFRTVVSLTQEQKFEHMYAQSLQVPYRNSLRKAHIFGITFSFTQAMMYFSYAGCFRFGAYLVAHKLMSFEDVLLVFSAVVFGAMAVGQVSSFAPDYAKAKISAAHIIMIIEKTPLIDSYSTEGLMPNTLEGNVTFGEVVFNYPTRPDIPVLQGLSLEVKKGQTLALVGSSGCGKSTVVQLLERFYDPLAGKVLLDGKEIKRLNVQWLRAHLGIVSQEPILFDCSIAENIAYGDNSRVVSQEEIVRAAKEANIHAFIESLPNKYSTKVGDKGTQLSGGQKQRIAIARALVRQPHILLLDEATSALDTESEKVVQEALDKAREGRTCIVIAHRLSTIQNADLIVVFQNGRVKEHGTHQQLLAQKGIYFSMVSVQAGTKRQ

Structure (SMILES): COc1cc2c(cc1OC)CN(CCc1ccc(NC(=O)c3cccc4c(=O)c5cccc(OC)c5[nH]c34)cc1)CC2 [GF120918, 9,10-dihydro-5-methoxy-9oxo-N-[4-[2-(1,2,3,4-tetrahydro-6,7,-dimethoxy-2-isoquinolinyl)ethyl]phenyl]-4-acridinecarboxamide]
P-glycoprotein inhibition (P-glycoprotein): P-glycoprotein inhibitor | bioavailability across the gut [1]: very poor bioavailability

Structure (SMILES): OCCN(CCO)c1nc(N2CCCCC2)c2nc(N(CCO)CCO)nc(N3CCCCC3)c2n1 [dipyridamole]
oral bioavailability-enhancing activity [2]: less enhancing activity

Structure (SMILES): CC(=O)O[C@H]1C(=O)[C@@]2(C)[C@H]([C@H](OC(=O)c3ccccc3)[C@]3(O)C[C@H](OC(=O)[C@H](O)[C@@H](NC(=O)c4ccccc4)c4ccccc4)C(C)=C1C3(C)C)[C@]1(OC(C)=O)CO[C@@H]1C[C@@H]2O [paclitaxel, 5β,20-epoxy-1,2α,4,7β,10β,13α-hexa-hydroxytax-11-en-9-one 4,10-diacetate 2-benzoate 13-ester with (2R,3S)-N-benzoyl-3-phenylisoserine]
absorbed when administered orally [3]: less than 1% | antitumour activity on oral administration (tumour): no evidence of antitumour activity | level at which inhibition of tubulin disassembly occurs (tubulin): about 0.1 μM; also recorded: about 85 ng/ml | level at which inhibition of protein isoprenylation occurs (protein isoprenylation): about 0.03 μM; also recorded: about 25 ng/ml | response rate (metastatic breast cancer): 27%

Continued, values first:

oral bioavailability-enhancing activity [2]: significant
Structure (SMILES): CC(=O)N1CCN(c2ccc(OCC3COC(Cn4ccnc4)(c4ccc(Cl)cc4Cl)O3)cc2)CC1 (stereo not shown) [ketoconazole]

oral bioavailability-enhancing activity [2]: none
Structure (SMILES): CC(=O)[C@H]1CC[C@H]2[C@@H]3CCC4=CC(=O)CC[C@]4(C)[C@H]3CC[C@]12C [progesterone]
